Laboratory results reported in patent US10004225B2, “Wearable insect repelling patch” (S. C. Johnson & Son, Inc., priority 2005, dated 2018).
Where two headings read alike, the source gives them in different places.

Columns and labels:
[1] = test system: mosquitoes; test: Three-chamber test apparatus, mosquito personal area repellency of hung patches with human test subject as attractant; format: in vivo; settings: for personal area control (result in words): no adhesive layer
Experimental: Various patch sizes and insect repellents were tested, initially using the test apparatus shown schematically generally at 20 in FIG. 3. The test apparatus 20 has a sample chamber 22, connected to a mosquito chamber 24, which is connected via an opening 34 to a remote chamber 26. Each chamber is generally cubical, with a volume of about 0.43 m^3.
The sample chamber 22 has an open end 28 on the side remote from the mosquito chamber 24. A screen 30 divides the sample chamber 22 from the mosquito chamber 24. The opening 34 between the mosquito chamber 24 and the remote chamber 26 is slightly constricted by side walls 32. However, the opening 34 is still sufficiently large that mosquitoes can freely move between the mosquito and remote chambers 24 and 26.
Four, screened, low-flow exhaust ports 36 are located in the side walls 32, the exhaust ports facing the open end 28. Air is drawn through the exhaust ports 36 and exhausted from the mosquito chamber 24 at a rate sufficient to draw air in through the open end 28 but insufficient to affect the flying of mosquitoes placed in the mosquito chamber 24 or to disturb the air in the remote chamber 26.
For each test, a human test subject 38 is placed at the open end 28 of the sample chamber 22, the test subject's breath providing the warmth, CO2, and moisture known to be human attractants for mosquitoes. The exhaust ports 36 pull air, along with those attractants, though the open end 28 and on through the sample chamber 22, the screen 30, and the mosquito chamber 24. The attractants thus leave the apparatus 20 without entering the remote chamber 26.
Mosquitoes are placed in the mosquito chamber 24 and are quickly attracted to the screen 30 by the human attractants. The open end 28 is large enough to expose primarily the upper torso and head of the test subject. Two patches 10 are hung one foot into the sample chamber 22 and approximately 20 cm down from the chamber's top (except as was done otherwise in particular experiments, as is noted, below).
Percent repellency was calculated as the percent of mosquitoes that had been initially introduced into the mosquito chamber 24 (most of which were attracted to the screen 30 before the patches 10 were put in place), that then were repelled from the screen when the patches were introduced. The “repellency” indicated in the table, below, for time zero reflects the mosquitoes that were not yet attracted to the screen 30 by the time the test patches 10 were introduced. […] The patches 10 used were 103 cm^2 in size, with no adhesive layer 18.
The patch material was a non-woven cloth material comprised of rayon, polyester, and polypropylene (as described in published U.S. Patent Application US20040082248), dosed with 60 mg of the active ingredient. The controls used no patches.
The same test apparatus 20 was used in the same way as described in Example 1, with the following changes. When a test included four patches 10, two were hung as in Example 1, and two were hung about 13 cm from the bottom of the chamber to simulate patches worn on the shoulders and at the waist of a user. In one test, as indicated in the table, below, the patches 10 were attached to the test subject's chest. Each individual patch was treated with the amount of insect repellent indicated. Time is shown in minutes.

[2] = cited from earlier work
[3] = Example 1, 2 patches 103 cm^2, 60 mg each
[4] = Example 1, 2 patches 103 cm^2, 60 mg each, no adhesive, 5 min
[5] = Example 1, 2 patches 103 cm^2, 60 mg each, no adhesive, 10 min
[6] = Example 1, 2 patches 103 cm^2, 60 mg each, no adhesive, 15 min
[7] = Example 1, 2 patches 103 cm^2, 60 mg each, no adhesive, 20 min
[8] = Example 1, 2 patches 103 cm^2, 60 mg each, no adhesive, time 0 min (mosquitoes not yet attracted to screen)

CC=C[C@@H]1[C@@H](C(=O)OCc2c(F)c(F)c(C)c(F)c2F)C1(C)C (racemic) [profluthrin, 2,3,5,6-tetrafluoro-4-methylbenzyl (EZ)-(1RS,3RS)-2,2-dimethyl-3-(prop-1-enyl)-cyclopropanecarboxylate]
personal area repellency (result in words) [1, 3]: successful personal area repellency | % Repellency [1, 4]: 55% | % Repellency [1, 5]: 67% | % Repellency [1, 6]: 91% | % Repellency [1, 7]: 93% | % Repellency [1, 8]: 6% | Vapor pressure ([2]; @ 25° C.): 7.73 × 10^−5 mmHg @

C#C[C@@H](OC(=O)[C@@H]1[C@@H](C=C(C)C)C1(C)C)C(C)=CCC (racemic) [emphenthrin, (RS)-1-ethynyl-2-methyl-2-pentenyl-(1RS,3RS)-2,2-dimethyl-3-(2-methylpropenyl)-cyclopropanecarboxylate]
% Repellency ([1]; Example 2, 2 patches 103 cm^2, 60 mg each, 0 min): 17 | % Repellency ([1]; Example 2, 2 patches 103 cm^2, 60 mg each, 5 min): 33 | % Repellency ([1]; Example 2, 2 patches 103 cm^2, 60 mg each, 10 min): 29 | % Repellency ([1]; Example 2, 2 patches 103 cm^2, 60 mg each, 15 min): 29 | practical mosquito personal area repellency (result in words) ([1]; Example 2, 2 patches 103 cm^2, 60 mg each, within 20 minutes): proved not to be an insect repellent capable of providing practical mosquito personal area repellency within 20 minutes

CC1(C)[C@H](C=C(Cl)Cl)[C@H]1C(=O)OCc1c(F)c(F)cc(F)c1F [transfluthrin, (1R-trans)-(2,3,5,6-tetrafluorophenyl)-methyl-3-(2,2-dichloroethenyl)-2,2-dimethylcyclopropanecarboxylate]
personal area repellency (result in words) [1, 3]: successful personal area repellency | % Repellency [1, 4]: 54% | % Repellency [1, 5]: 75% | % Repellency [1, 6]: 90% | % Repellency [1, 7]: 92% | % Repellency [1, 8]: 13% | % Repellency ([1]; Example 2, 2 patches 25.8 cm^2, 30 mg each, 0 min): 13 | % Repellency ([1]; Example 2, 2 patches 25.8 cm^2, 30 mg each, 5 min): 41 | % Repellency ([1]; Example 2, 2 patches 25.8 cm^2, 30 mg each, 10 min): 68 | % Repellency ([1]; Example 2, 2 patches 25.8 cm^2, 30 mg each, 15 min): 74 | % Repellency ([1]; Example 2, 2 patches 25.8 cm^2, 30 mg each, 20 min): 79 | % Repellency ([1]; Example 2, 2 patches 103.22 cm^2 taped to test subject's chest, 60 mg each, 0 min): 19 | % Repellency ([1]; Example 2, 2 patches 103.22 cm^2 taped to test subject's chest, 60 mg each, 5 min): 33 | % Repellency ([1]; Example 2, 2 patches 103.22 cm^2 taped to test subject's chest, 60 mg each, 10 min): 44 | % Repellency ([1]; Example 2, 2 patches 103.22 cm^2 taped to test subject's chest, 60 mg each, 15 min): 52 | % Repellency ([1]; Example 2, 2 patches 103.22 cm^2 taped to test subject's chest, 60 mg each, 20 min): 81 | % Repellency ([1]; Example 2, 4 patches 6.45 cm^2, 120 mg each, 0 min): 11 | % Repellency ([1]; Example 2, 4 patches 6.45 cm^2, 120 mg each, 5 min): 21 | % Repellency ([1]; Example 2, 4 patches 6.45 cm^2, 120 mg each, 10 min): 32 | % Repellency ([1]; Example 2, 4 patches 6.45 cm^2, 120 mg each, 15 min): 42 | % Repellency ([1]; Example 2, 4 patches 6.45 cm^2, 120 mg each, 20 min): 47 | % Repellency ([1]; Example 2, 4 patches* 6.45 cm^2, 60 mg each, 4th patch added 10 minutes into test, 0 min): 5 | % Repellency ([1]; Example 2, 4 patches* 6.45 cm^2, 60 mg each, 4th patch added 10 minutes into test, 5 min): 26 | % Repellency ([1]; Example 2, 4 patches* 6.45 cm^2, 60 mg each, 4th patch added 10 minutes into test, 10 min): 47 | % Repellency ([1]; Example 2, 4 patches* 6.45 cm^2, 60 mg each, 4th patch added 10 minutes into test, 15 min): 47 | % Repellency ([1]; Example 2, 4 patches* 6.45 cm^2, 60 mg each, 4th patch added 10 minutes into test, 20 min): 47 | personal area control (result in words) ([1]; Example 2, total area of patches at least 51.6 cm^2 (2 patches, each 25.8 cm^2)): successful personal area control | Vapor pressure ([2]; @ 20° C.): 3.0 × 10^−6 mmHg @

COP(=O)(OC)OC=C(Cl)Cl [DDVP, 2,2-dichlorovinyl dimethyl phosphate]
% Repellency ([1]; Example 2, 4 patches 103 cm^2, 60 mg each, 0 min): 5 | % Repellency ([1]; Example 2, 4 patches 103 cm^2, 60 mg each, 5 min): 11 | % Repellency ([1]; Example 2, 4 patches 103 cm^2, 60 mg each, 10 min): 47 | % Repellency ([1]; Example 2, 4 patches 103 cm^2, 60 mg each, 15 min): 95 | % Repellency ([1]; Example 2, 4 patches 103 cm^2, 60 mg each, 20 min): 95 | personal area control (result in words) ([1]; Example 2, 4 patches, each 103 cm^2 in gross area): successful personal area control | Vapor pressure ([2]; @ 20° C.): 1.2 × 10^−5 mmHg @
